The record followed here is patent publication US8022225B2, “Triazole derivative” (Taisho Pharmaceutical Co., Ltd, priority 2004, dated 2011).

For assay [1], the target named is T1, human Edg-1(S1P1) (Homo sapiens, UniProt P21453).
T1 construct: expressed in transfected cells; host or cells: HEK-293
Put plainly: Cell system binding test: inhibition of [3H]-S1P binding to Edg-1(S1P1) gene transferred HEK-293 cells. Conditions: 10 μM compound, [3H]-S1P 10 nM, read-out: Cell system binding test % inhibition (10 μM).

Assay [2] addresses T1, human Edg-1(S1P1). In words: Membrane system binding test: inhibition of [33P]-S1P binding to the membrane fraction of Edg-1(S1P1) gene transferred HEK-293 cells. Conditions: 10 μM compound; [33P]-S1P 0.1 nM; membrane fraction of Edg-1(S1P1) gene transferred HEK-293 cells; read-out: Membrane system binding test % inhibition (10 μM). A digest of the protocol: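 Compound tested at 10^−5 M final (0.1% DMSO) for blocking 0.1 nM [^33P]-S1P binding to S1P1-expressing HEK-293 membranes, 30 °C, 1 h. Radioactivity retained on filters was counted, and percent inhibition derived relative to vehicle binding, correcting for the background of non-transfected HEK-293 membranes.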

T1 sequence (P21453 whole entry): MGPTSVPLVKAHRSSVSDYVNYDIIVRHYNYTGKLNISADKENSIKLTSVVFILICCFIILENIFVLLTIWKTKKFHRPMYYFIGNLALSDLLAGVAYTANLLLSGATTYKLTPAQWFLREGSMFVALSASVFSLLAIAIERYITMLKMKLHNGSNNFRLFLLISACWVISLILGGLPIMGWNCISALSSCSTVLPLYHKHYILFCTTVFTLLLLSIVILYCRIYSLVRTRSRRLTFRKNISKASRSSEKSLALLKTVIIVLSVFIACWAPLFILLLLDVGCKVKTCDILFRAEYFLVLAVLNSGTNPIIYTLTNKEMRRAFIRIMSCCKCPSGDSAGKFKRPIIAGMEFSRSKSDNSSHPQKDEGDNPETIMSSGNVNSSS

One may read the inhibition as the relative decrease from the control value, in per cent. For the compound `CCn1c(OCC2CCC2)nnc1[C@@H](C)NS(=O)(=O)c1ccc(Cl)cc1` [Compound 385], the inhibition at 10 µM is 99.9% at human Edg-1(S1P1) [1] and 90.1% at human Edg-1(S1P1) [2].
`CCCOc1nnc([C@@H](Cc2ccccc2)NS(=O)(=O)c2ccc(Cl)cc2)n1CC` [Compound 386]: the inhibition at 10 µM at human Edg-1(S1P1) [1] came to 103%; on human Edg-1(S1P1) [2], 99.5%.
The like results for `CCn1c(OC2CCC2)nnc1[C@@H](C)NS(=O)(=O)c1ccc(Cl)cc1` [Compound 387] were, in that order, 102% and 99.3%.
The like results for `CCn1c(OC2CCCCC2)nnc1[C@@H](C)NS(=O)(=O)c1ccc(Cl)cc1` [Compound 388] were, in that order, 104% and 103%.
Consider `CCn1c(OCC(C)C)nnc1[C@@H](C)NS(=O)(=O)c1ccc(Cl)cc1` [Compound 389], for which the inhibition at 10 µM worked out at 96.3% on human Edg-1(S1P1) [1] and 89.6% on human Edg-1(S1P1) [2].
For the compound `CCn1c(OC)nnc1[C@@H](Cc1ccccc1)NS(=O)(=O)c1ccc(Cl)cc1` [Compound 390], the inhibition at 10 µM at human Edg-1(S1P1) [1] stood at 101%; at human Edg-1(S1P1) [2] it was 99.8%.
Consider `CCn1c(OCCC(C)C)nnc1[C@@H](C)NS(=O)(=O)c1ccc(Cl)cc1` [Compound 391], for which the inhibition at 10 µM at human Edg-1(S1P1) [1] was 92.5%; at human Edg-1(S1P1) [2], 78.3%.
The like results for `CCn1c(OC2CCOC2)nnc1[C@@H](C)NS(=O)(=O)c1ccc(Cl)cc1` (some centres unmarked) [Compound 392] were, in that order, 95.6% and 85.1%.
Take `CCn1c(OCCN2CCOCC2)nnc1[C@@H](C)NS(=O)(=O)c1ccc(Cl)cc1` [Compound 393]: the inhibition at 10 µM was 82.4% on human Edg-1(S1P1) [1] and 65.3% at human Edg-1(S1P1) [2].
As for `CCn1c(OCCCN2CCOCC2)nnc1[C@@H](C)NS(=O)(=O)c1ccc(Cl)cc1` [Compound 394], the inhibition at 10 µM at human Edg-1(S1P1) [1] amounted to 82.9%; at human Edg-1(S1P1) [2], 76.9%.
Take `CCn1c(OCC(F)(F)F)nnc1[C@@H](C)NS(=O)(=O)c1ccc(Cl)cc1` [Compound 395]: the inhibition at 10 µM at human Edg-1(S1P1) [1] amounted to 91.9%; at human Edg-1(S1P1) [2] it was 83.7%.
The like results for `CCCCOc1nnc([C@@H](C)NS(=O)(=O)c2ccc(Cl)cc2)n1CC` [Compound 396] were, in that order, 87.9% and 83.3%.
The like results for `CCn1c(OCCCC(F)(F)F)nnc1[C@@H](C)NS(=O)(=O)c1ccc(Cl)cc1` [Compound 397] were, in that order, 88.6% and 92%.
On to `CCn1c(OCCCOC)nnc1[C@@H](C)NS(=O)(=O)c1ccc(Cl)cc1` [Compound 398], for which the inhibition at 10 µM on human Edg-1(S1P1) [1] is 85.8%; on human Edg-1(S1P1) [2] it was 93.5%.
The like results for `CCOc1nnc([C@@H](C)NS(=O)(=O)c2ccc(F)c(C(F)(F)F)c2)n1CC` [Compound 399] were, in that order, 88.5% and 90.9%.
With `CCOc1nnc([C@@H](C)NS(=O)(=O)c2ccc(Br)s2)n1CC` [Compound 400], the figures for the inhibition at 10 µM at human Edg-1(S1P1) [1] and at human Edg-1(S1P1) [2] were 92.8% and 84.8%, respectively.
Turning to `CCOc1nnc([C@@H](C)NS(=O)(=O)c2ccc(Cl)c(Cl)c2)n1CC` [Compound 401], the inhibition at 10 µM at human Edg-1(S1P1) [1] stood at 92.8%; on human Edg-1(S1P1) [2], 87.2%.
The like results for `CCOc1nnc([C@@H](C)NS(=O)(=O)c2ccc3ccccc3c2)n1CC` [Compound 402] were, in that order, 90.4% and 95.8%.
The like results for `CCOc1nnc([C@@H](C)NS(=O)(=O)c2ccc(F)c(F)c2)n1CC` [Compound 403] were, in that order, 86.1% and 85.9%.
The like results for `CCOc1nnc([C@@H](C)NS(=O)(=O)c2ccc(C)c(Cl)c2)n1CC` [Compound 404] were, in that order, 91.2% and 90%.
Regarding `CCOc1nnc([C@@H](C)NS(=O)(=O)c2ccc(Br)c(F)c2)n1CC` [Compound 405], the inhibition at 10 µM was determined as 90.4% on human Edg-1(S1P1) [1] and 88.2% at human Edg-1(S1P1) [2].
The like results for `CCOc1nnc([C@@H](C)NS(=O)(=O)c2cc3ccccc3s2)n1CC` [Compound 406] were, in that order, 90.1% and 92.5%.
With `CCOc1nnc([C@@H](C)NS(=O)(=O)c2ccc(F)c(Cl)c2)n1CC` [Compound 407], the inhibition at 10 µM on human Edg-1(S1P1) [1] was 94.7%; on human Edg-1(S1P1) [2] it was 81.9%.
Regarding `CCOc1nnc([C@@H](C)NS(=O)(=O)c2cccc(Br)c2)n1CC` [Compound 408], the inhibition at 10 µM was 88.5% at human Edg-1(S1P1) [1] and 84.9% on human Edg-1(S1P1) [2].
As to `CCOc1nnc([C@@H](C)NS(=O)(=O)c2ccc(Br)cc2)n1CC` [Compound 409], the inhibition at 10 µM at human Edg-1(S1P1) [1] was 88.1%; at human Edg-1(S1P1) [2], 92.2%.
The like results for `CCOc1nnc([C@@H](C)NS(=O)(=O)c2ccc(C)c(C)c2)n1CC` [Compound 410] were, in that order, 96.4% and 86.1%.
The like results for `CCOc1nnc([C@@H](C)NS(=O)(=O)c2ccc(C)c(F)c2)n1CC` [Compound 411] were, in that order, 95.9% and 81.8%.
Consider `CCOc1nnc([C@@H](C)NS(=O)(=O)c2ccc(Br)c(Br)c2)n1CC` [Compound 412], for which the inhibition at 10 µM at human Edg-1(S1P1) [1] was 99.9%; on human Edg-1(S1P1) [2] it was 89.1%.
For `CCOc1nnc([C@@H](C)NS(=O)(=O)c2ccc([N+](=O)[O-])cc2)n1CC` [Compound 413], the inhibition at 10 µM on human Edg-1(S1P1) [1] worked out at 100%; at human Edg-1(S1P1) [2], 93.8%.
The like results for `CCOc1nnc([C@@H](C)NS(=O)(=O)c2cccc(C(F)(F)F)c2)n1CC` [Compound 414] were, in that order, 101% and 81%.
For `CCOc1nnc([C@@H](C)NS(=O)(=O)c2cccc(OC(F)(F)F)c2)n1CC` [Compound 415], the inhibition at 10 µM amounted to 99.6% on human Edg-1(S1P1) [1] and 75.1% on human Edg-1(S1P1) [2].
Regarding `CCOc1nnc([C@@H](C)NS(=O)(=O)c2cccc(OC(F)F)c2)n1CC` [Compound 416], the inhibition at 10 µM stood at 100% at human Edg-1(S1P1) [1] and 77.7% on human Edg-1(S1P1) [2].
The like results for `CCOc1nnc([C@@H](C)NS(=O)(=O)c2cccc(OC)c2)n1CC` [Compound 417] were, in that order, 97.9% and 64.8%.
With `CCOc1nnc([C@@H](C)NS(=O)(=O)c2ccc3c(c2)OCO3)n1CC` [Compound 418], the inhibition at 10 µM at human Edg-1(S1P1) [1] stood at 99.5%; at human Edg-1(S1P1) [2], 70.4%.
On to `CCOc1nnc([C@@H](C)NS(=O)(=O)c2ccc(OC)cc2)n1CC` [Compound 420], for which the inhibition at 10 µM turned out to be 93.3% at human Edg-1(S1P1) [1] and 50.1% on human Edg-1(S1P1) [2].
The like results for `CCn1c(OC)nnc1[C@@H](Cc1ccc(Cl)cc1)NS(=O)(=O)c1ccc(Cl)cc1` [Compound 426] were, in that order, 95.7% and 101%.
In the case of `CCn1c(OC)nnc1[C@@H](C)NS(=O)(=O)c1cc2ccccc2o1` [Compound 427], the inhibition at 10 µM at human Edg-1(S1P1) [1] amounted to 97.5%; at human Edg-1(S1P1) [2], 67%.
As for `CCOc1nnc([C@@H](C)NS(=O)(=O)c2ccc(Br)c(C)c2)n1CC` [Compound 428], the inhibition at 10 µM is 101% at human Edg-1(S1P1) [1] and 99.2% on human Edg-1(S1P1) [2].
The like results for `CCOc1nnc([C@@H](C)NS(=O)(=O)c2ccc(C)cc2)n1CC` [Compound 429] were, in that order, 95.1% and 74.2%.
The like results for `CCOc1nnc([C@@H](C)NS(=O)(=O)c2cccc(Cl)c2C)n1CC` [Compound 430] were, in that order, 97.9% and 89.2%.
On to `CCOc1nnc([C@@H](C)NS(=O)(=O)c2ccc3nsnc3c2)n1CC` [Compound 431], for which the results for the inhibition at 10 µM at human Edg-1(S1P1) [1] and on human Edg-1(S1P1) [2] were 98% and 94.6%, respectively.
The like results for `CCOc1nnc([C@@H](C)NS(=O)(=O)c2ccc(C(F)(F)F)cc2)n1CC` [Compound 432] were, in that order, 92.2% and 82.9%.
The like results for `CCOc1nnc([C@@H](C)NS(=O)(=O)c2cc(F)cc(F)c2)n1CC` [Compound 433] were, in that order, 93.8% and 70.2%.
Consider `CCOc1nnc([C@@H](C)NS(=O)(=O)c2cc(Cl)c(Cl)s2)n1CC` [Compound 434], for which the results for the inhibition at 10 µM at human Edg-1(S1P1) [1] and at human Edg-1(S1P1) [2] were 95.6% and 90.5%, respectively.
Regarding `CCOc1nnc([C@@H](C)NS(=O)(=O)c2ccc(I)cc2)n1CC` [Compound 435], the inhibition at 10 µM came out at 93.7% on human Edg-1(S1P1) [1] and 86.4% on human Edg-1(S1P1) [2].
The like results for `CCOc1nnc([C@@H](C)NS(=O)(=O)c2ccc(F)cc2)n1CC` [Compound 436] were, in that order, 94.5% and 49%.
The like results for `CCOc1nnc([C@@H](C)NS(=O)(=O)c2ccc(Br)c(C(F)(F)F)c2)n1CC` [Compound 437] were, in that order, 101% and 93.9%.
The like results for `CCn1c(OC)nnc1[C@@H](Cc1ccccc1Cl)NS(=O)(=O)c1ccc(Cl)cc1` [Compound 439] were, in that order, 95% and 100%.
As to `CCn1c(OC)nnc1[C@@H](Cc1cccc(Cl)c1)NS(=O)(=O)c1ccc(Cl)cc1` [Compound 440], the inhibition at 10 µM at human Edg-1(S1P1) [1] worked out at 95.1%; on human Edg-1(S1P1) [2], 102%.
`CCn1c(OC)nnc1[C@@H](C)NS(=O)(=O)c1ccc2[nH]c(=O)oc2c1` [Compound 443]: the inhibition at 10 µM on human Edg-1(S1P1) [1] was 31.3%; at human Edg-1(S1P1) [2], 43%.
The like results for `CCn1c(OC)nnc1[C@@H](C)NS(=O)(=O)c1ccc(NC(C)=O)cc1` [Compound 444] were, in that order, 18.2% and 60.9%.
The like results for `CCOc1nnc([C@@H](C)NS(=O)(=O)c2cccc(Cl)c2)n1CC` [Compound 445] were, in that order, 93% and 81.6%.
